# Where two headings read alike, the source gives them in different places.
# Test system: Enterobacterales
# Experiment: MIC, broth microdilution, CDC/FDA Antibiotic Resistance Isolate Bank (Example 7, Tables 8, 11, 12)
# Format: cell-based
structure (smiles),measurement,setting,value
CN(C)c1cc(NC(=O)CNC(C)(C)C)c(O)c2c1C[C@H]1C[C@H]3[C@H](N(C)C)C(=O)C(C(N)=O)=C(O)[C@@]3(O)C(=O)C1=C2O [Tigecyeline],MIC,"Citrobacter freundii, KUB No. 5654, AR Bank # 157, read-out: MIC",0.5 µg/mL
same,MIC,"Enterobacter cloacae, Enterobacter cloacae KUB No. 5792, AR Bank #448",1 µg/mL
same,MIC,"Enterobacter cloacae, Enterobacter cloacae KUB No. 5807, AR Bank #501",1 µg/mL
same,MIC,"Enterobacter cloacae, Enterobacter cloacae KUB No. 5808, AR Bank #502",4 µg/mL
same,MIC,"Enterobacter cloacae, Enterobacter cloacae group, KUB No. 5629, AR Bank # 132",0.5 µg/mL
same,MIC,"Enterobacter cloacae, KUB No. 5529, AR Bank# 32",1 µg/mL
same,MIC,"Enterobacter cloacae, KUB No. 5535, AR Bank# 38",4 µg/mL
same,MIC,"Enterobacter cloacae, KUB No. 5547, AR Bank# 50",0.25 µg/mL
same,MIC,"Enterobacter cloacae, KUB No. 5550, AR Bank# 53",1 µg/mL
same,MIC,"Enterobacter cloacae, KUB No. 5557, AR Bank# 60",0.25 µg/mL
same,MIC,"Enterobacter cloacae, KUB No. 5562, AR Bank # 65",0.5 µg/mL
same,MIC,"Enterobacter cloacae, KUB No. 5569, AR Bank # 72",2 µg/mL
same,MIC,"Enterobacter cloacae, KUB No. 5570, AR Bank # 73",1 µg/mL
same,MIC,"Enterobacter cloacae, KUB No. 5590, AR Bank # 93",0.5 µg/mL
same,MIC,"Enterobacter cloaccae, KUB No. 5651, AR Bank # 154",0.5 µg/mL
same,MIC,"Enterobacter clooreae, KUB No. 5633, AR Bank # 136",2 µg/mL
same,MIC,"Escherichia coli, Escherichia coli KUB No. 5783, AR Bank #437",1 µg/mL
same,MIC,"Escherichia coli, Escherichia coli KUB No. 5794, AR Bank #450",0.5 µg/mL
same,MIC,"Escherichia coli, Escherichia coli KUB No. 5795, AR Bank #451",0.5 µg/mL
same,MIC,"Escherichia coli, Escherichia coli KUB No. 5796, AR Bank #452",0.5 µg/mL
same,MIC,"Escherichia coli, Escherichia coli KUB No. 5803, AR Bank #861",0.25 µg/mL
same,MIC,"Escherichia coli, KUB No. 5558, AR Bank # 61",0.25 µg/mL
same,MIC,"Escherichia coli, KUB No. 5564, AR Bank # 67",0.25 µg/mL
same,MIC,"Escherichia coli, KUB No. 5566, AR Bank # 69",0.25 µg/mL
same,MIC,"Escherichia coli, KUB No. 5574, AR Bank # 77",0.12 µg/mL
same,MIC,"Escherichia coli, KUB No. 5578, AR Bank # 81",0.12 µg/mL
same,MIC,"Escherichia coli, KUB No. 5581, AR Bank # 84",0.12 µg/mL
same,MIC,"Escherichia coli, KUB No. 5582, AR Bank # 85",0.25 µg/mL
same,MIC,"Escherichia coli, KUB No. 5583, AR Bank # 86",0.5 µg/mL
same,MIC,"Escherichia coli, KUB No. 5586, AR Bank # 89",0.25 µg/mL
same,MIC,"Escherichia coli, KUB No. 5601, AR Bank # 104",0.12 µg/mL
same,MIC,"Escherichia coli, KUB No. 5611, AR Bank # 114",0.12 µg/mL
same,MIC,"Escherichia coli, KUB No. 5615, AR Bank # 118",0.12 µg/mL
same,MIC,"Escherichia coli, KUB No. 5616, AR Bank # 119",0.5 µg/mL
same,MIC,"Escherichia coli, KUB No. 5625, AR Bank # 128",0.12 µg/mL
same,MIC,"Escherichia coli, KUB No. 5634, AR Bank # 137",0.5 µg/mL
same,MIC,"Escherichia coli, KUB No. 5646, AR Bank # 149",0.25 µg/mL
same,MIC,"Escherichia coli, KUB No. 5647, AR Bank # 150",0.25 µg/mL
same,MIC,"Escherichia coli, KUB No. 5648, AR Bank # 151",0.25 µg/mL
same,MIC,"Escherichia coli, KUB No. 5659, AR Bank # 162",0.5 µg/mL
same,MIC,"Klebsiella aerogenes, Enterobacter aerogenes, KUB No. 5559, AR Bank # 62",2 µg/mL
same,MIC,"Klebsiella aerogenes, Enterobacter aerogenes, KUB No. 5571, AR Bank # 74",0.25 µg/mL
same,MIC,"Klebsiella aerogenes, Enterobacter aerogenes, KUB No. 5658, AR Bank # 161",1 µg/mL
same,MIC,"Klebsiella oxytoca, KUB No. 5568, AR Bank # 71",1 µg/mL
same,MIC,"Klebsiella oxytoca, KUB No. 5644, AR Bank # 147",0.5 µg/mL
same,MIC,"Klebsiella ozaenae, KUB No. 5548, AR Bank# 51",1 µg/mL
same,MIC,"Klebsiella ozaenae, KUB No. 5593, AR Bank # 96",0.5 µg/mL
same,MIC,"Klebsiella pneumoniae, KUB No. 55, AR Bank# 47",0.5 µg/mL
same,MIC,"Klebsiella pneumoniae, KUB No. 5531, AR Bank# 34",0.5 µg/mL
same,MIC,"Klebsiella pneumoniae, KUB No. 5536, AR Bank# 39",1 µg/mL
same,MIC,"Klebsiella pneumoniae, KUB No. 5537, AR Bank# 40",2 µg/mL
same,MIC,"Klebsiella pneumoniae, KUB No. 5538, AR Bank# 41",1 µg/mL
same,MIC,"Klebsiella pneumoniae, KUB No. 5540, AR Bank# 43",0.5 µg/mL
same,MIC,"Klebsiella pneumoniae, KUB No. 5541, AR Bank# 44",0.5 µg/mL
same,MIC,"Klebsiella pneumoniae, KUB No. 5543, AR Bank# 46",2 µg/mL
same,MIC,"Klebsiella pneumoniae, KUB No. 5546, AR Bank# 49",4 µg/mL
same,MIC,"Klebsiella pneumoniae, KUB No. 5563, AR Bank # 66",2 µg/mL
same,MIC,"Klebsiella pneumoniae, KUB No. 5565, AR Bank # 68",2 µg/mL
same,MIC,"Klebsiella pneumoniae, KUB No. 5572, AR Bank # 75",2 µg/mL
same,MIC,"Klebsiella pneumoniae, KUB No. 5573, AR Bank # 76",0.25 µg/mL
same,MIC,"Klebsiella pneumoniae, KUB No. 5576, AR Bank # 79",0.5 µg/mL
same,MIC,"Klebsiella pneumoniae, KUB No. 5577, AR Bank # 80",0.25 µg/mL
same,MIC,"Klebsiella pneumoniae, KUB No. 5584, AR Bank # 87",2 µg/mL
same,MIC,"Klebsiella pneumoniae, KUB No. 5594, AR Bank # 97",1 µg/mL
same,MIC,"Klebsiella pneumoniae, KUB No. 5595, AR Bank # 98",0.5 µg/mL
same,MIC,"Klebsiella pneumoniae, KUB No. 5603, AR Bank # 106",2 µg/mL
same,MIC,"Klebsiella pneumoniae, KUB No. 5604, AR Bank # 107",0.25 µg/mL
same,MIC,"Klebsiella pneumoniae, KUB No. 5606, AR Bank # 109",1 µg/mL
same,MIC,"Klebsiella pneumoniae, KUB No. 5609, AR Bank # 112",0.5 µg/mL
same,MIC,"Klebsiella pneumoniae, KUB No. 5610, AR Bank # 113",0.5 µg/mL
same,MIC,"Klebsiella pneumoniae, KUB No. 5612, AR Bank # 115",2 µg/mL
same,MIC,"Klebsiella pneumoniae, KUB No. 5614, AR Bank # 117",0.5 µg/mL
same,MIC,"Klebsiella pneumoniae, KUB No. 5617, AR Bank # 120",0.5 µg/mL
same,MIC,"Klebsiella pneumoniae, KUB No. 5622, AR Bank # 125",1 µg/mL
same,MIC,"Klebsiella pneumoniae, KUB No. 5623, AR Bank # 126",0.5 µg/mL
same,MIC,"Klebsiella pneumoniae, KUB No. 5626, AR Bank # 129",1 µg/mL
same,MIC,"Klebsiella pneumoniae, KUB No. 5632, AR Bank # 135",1 µg/mL
same,MIC,"Klebsiella pneumoniae, KUB No. 5635, AR Bank # 138",2 µg/mL
same,MIC,"Klebsiella pneumoniae, KUB No. 5636, AR Bank # 139",0.5 µg/mL
same,MIC,"Klebsiella pneumoniae, KUB No. 5637, AR Bank # 140",1 µg/mL
same,MIC,"Klebsiella pneumoniae, KUB No. 5638, AR Bank # 141",1 µg/mL
same,MIC,"Klebsiella pneumoniae, KUB No. 5639, AR Bank # 142",1 µg/mL
same,MIC,"Klebsiella pneumoniae, KUB No. 5640, AR Bank # 143",2 µg/mL
same,MIC,"Klebsiella pneumoniae, KUB No. 5642, AR Bank # 145",0.5 µg/mL
same,MIC,"Klebsiella pneumoniae, KUB No. 5643, AR Bank # 146",1 µg/mL
same,MIC,"Klebsiella pneumoniae, KUB No. 5645, AR Bank # 148",1 µg/mL
same,MIC,"Klebsiella pneumoniae, KUB No. 5649, AR Bank # 152",2 µg/mL
same,MIC,"Klebsiella pneumoniae, KUB No. 5650, AR Bank # 153",1 µg/mL
same,MIC,"Klebsiella pneumoniae, KUB No. 5655, AR Bank # 158",1 µg/mL
same,MIC,"Klebsiella pneumoniae, KUB No. 5657, AR Bank # 160",0.5 µg/mL
same,MIC,"Klebsiella pneumoniae, Klebsiella pneumoniae KUB No. 5784, AR Bank #438",1 µg/mL
same,MIC,"Klebsiella pneumoniae, Klebsiella pneumoniae KUB No. 5797, AR Bank #453",1 µg/mL
same,MIC,"Klebsiella pneumoniae, Klebsiella pneumoniae KUB No. 5809, AR Bank #504",1 µg/mL
same,MIC,"Klebsiella pneumoniae, Klebsiella pneumoniae KUB No. 5810, AR Bank #505",0.5 µg/mL
same,MIC,"Klebsiella pneumoniae, Klebsiella pneumoniae KUB No. 5811, AR Bank #506",2 µg/mL
same,MIC,"Klebsiella pneumoniae, Klebsiella pneumoniae KUB No. 5812, AR Bank #507",2 µg/mL
same,MIC,"Klebsiella pneumoniae, Klebsiella pneumoniae KUB No. 5827, AR Bank #522",1 µg/mL
same,MIC,"Klebsiella pneumoniae, Klebsiella pneumoniae KUB No. 5828, AR Bank #523",1 µg/mL
same,MIC,"Klebsiella pneumoniae, Klebsiella pneumoniae KUB No. 5829, AR Bank #524",1 µg/mL
same,MIC,"Klebsiella pneumoniae, Klebsiella pneumoniae KUB No. 5830, AR Bank #525",1 µg/mL
same,MIC,"Kluyvera ascorbata, KUB No. 5641, AR Bank # 144, read-out: MIC",2 µg/mL
same,MIC,"Morganella morganii, KUB No. 5554, AR Bank# 57",0.5 µg/mL
same,MIC,"Morganella morganii, KUB No. 5630, AR Bank # 133, read-out: MIC",4 µg/mL
same,MIC,"Proteus mirabilis, KUB No. 5556, AR Bank# 59",1 µg/mL
same,MIC,"Proteus mirabilis, KUB No. 5652, AR Bank # 155",2 µg/mL
same,MIC,"Proteus mirabilis, KUB No. 5653, AR Bank # 156",1 µg/mL
same,MIC,"Proteus mirabilis, KUB No. 5656, AR Bank # 159",2 µg/mL
same,MIC,"Providencia rettgeri, KUB No. 5579, AR Bank # 82",2 µg/mL
same,MIC,"Raoultella ornithinolvtica, KUB No. 5631, AR Bank # 134, read-out: MIC",0.25 µg/mL
same,MIC,"Salmonella enterica, Salmonella Senftenberg, KUB No. 5624, AR Bank # 127, read-out: MIC",0.5 µg/mL
same,MIC,"Serratia marcescens, KUB No. 5588, AR Bank # 91",0.5 µg/mL
same,MIC,"Serratia marcescens, KUB No. 5596, AR Bank # 99",1 µg/mL
same,MIC,"Serratia marcescens, KUB No. 5618, AR Bank # 121",1 µg/mL
same,MIC,"Serratia marcescens, KUB No. 5619, AR Bank # 122",1 µg/mL
same,MIC,"Serratia marcescens, KUB No. 5620, AR Bank # 123",1 µg/mL
same,MIC,"Serratia marcescens, KUB No. 5621, AR Bank # 124",1 µg/mL
same,MIC,"Serratia marcescens, KUB No. 5627, AR Bank # 130",1 µg/mL
same,MIC,"Serratia marcescens, KUB No. 5628, AR Bank # 131",1 µg/mL
same,MIC,"Serratia marcescens, Serratia marcescens KUB No. 5825, AR Bank #520",1 µg/mL
same,MIC,"Serratia marcescens, Serratia marcescens KUB No. 5826, AR Bank #521",2 µg/mL

# From patent publication EP4635500A1, “THERAPEUTIC AGENT FOR BACTERIAL INFECTION” (Sumitomo Pharma Co., Ltd., priority 2022, dated 2024)
